Source: patent US10729759B2, “Fluorocarbon-linked peptide formulation” (priority 2010, dated 2020)
Entries after “also recorded” stand apart in the source; their conditions may differ. Like-named read-outs stand apart in the source and are kept apart here. Residues, ends and D or L forms follow the SMILES beside them. *: point of attachment. Propanoyl(3-C8F17) = O=C(CCC(F)(F)C(F)(F)C(F)(F)C(F)(F)C(F)(F)C(F)(F)C(F)(F)C(F)(F)F)*

Tests used:
[1] = for Ease of solubility, Cycle 1 Vortexing: 10 mg net/ml in 10% (FCP1, 2, 4, 5) or 80% (FCP9, 8) acetic acid; for Ease of solubility, Cycle 1 Sonication / Ease of solubility, Cycle 2 Sonication / Ease of solubility, Cycle 2 Vortexing / Ease of solubility, Cycle 3 Sonication / Ease of solubility, Cycle 3 Vortexing: 10 mg net/ml in 10% or 80% acetic acid; for Visual appearance after dispersion: 10 mg net/ml in AcOH 10% or 80%
[2] = format: physicochemical; conditions: 1.33% mannitol, 0.22 μm PVDF filter; for YIELD % of each FCP following sterile filtration, MIX 2: MIX 2 dispersed in water; for YIELD % of each FCP following sterile filtration, MIX 1: MIX 1 dispersed in water
[3] = format: physicochemical; conditions: for Percentage acetic acid (% v/v): minimum concentration for acceptable dispersibility and solubility: FCP 2 μmol/ml after acetic acid dispersion; for Visual appearance after dispersion: at the listed acetic acid concentration, FCP 2 μmol/ml; for Physical stability of formulation at less than 80% (v/v) acetic acid: gel or soluble particulates formed over time
Procedure: In order to limit the concentration of acetic acid downstream in the formulation process and in the final product, the lowest concentration of acetic acid in water to achieve efficient dispersion and maintain visible solubility was determined for each fluorocarbon-linked peptide. When using mannitol as a cryprotectant, it is important to minimize the acetic acid concentration at the lyophilisation stage in order to achieve a stable and amorphous freeze-dried product. The minimum acetic acid concentration to achieve acceptable dispersibility and solubility of the individual fluorocarbon-linked peptides was determined. The final concentration of fluorocarbon-linked peptide after initial acetic acid dispersion was 2 μmol/ml and after dilution with mannitol, 0.250 μmol/ml.

[4] = format: physicochemical; conditions: for Further dilution in Mannitol:Water Solubility: FCP 0.167 mM, 1.33% (w/v) mannitol, cloudiness / particulates; for Dispersion in Water Solubility: FCP 1.333 mM in water, vortexed and sonicated, cloudiness (Clear/Cloudy−/Cloudy/Cloudy+) / particulates
Procedure: The solubility of each FCP in water was assessed. Each FCP was dispersed in 300 μl of water to a final concentration of 1.333 mM and vortexed and sonicated. The typical dispersion conditions were four sequences of three minutes bath sonication interspersed by 30 seconds vortexing. After inspection, the resulting solution was diluted with a mannitol solution (a candidate lyophilisation medium, final concentration of peptide 0.167 mM, 1.33% (w/v) mannitol). Solubility was assessed by visual observation of the cloudiness of the resulting dispersion (scaled: Clear/Cloudy−/Cloudy/Cloudy+) and presence of particulates. […]

| Compound | Ease of solubility, Cycle 1 Vortexing [1] | Ease of solubility, Cycle 1 Sonication [1] | Ease of solubility, Cycle 2 Sonication [1] | Ease of solubility, Cycle 2 Vortexing [1] | Ease of solubility, Cycle 3 Sonication [1] | Ease of solubility, Cycle 3 Vortexing [1] | Visual appearance after dispersion [1] | YIELD % of each FCP following sterile filtration, MIX 2 [2] | Percentage acetic acid (% v/v): minimum concentration for acceptable dispersibility and solubility [3] | Visual appearance after dispersion [3] | Further dilution in Mannitol:Water Solubility [4] | Dispersion in Water Solubility [4] | YIELD % of each FCP following sterile filtration, MIX 1 [2] | Physical stability of formulation at less than 80% (v/v) acetic acid [3] |
| --- | --- | --- | --- | --- | --- | --- | --- | --- | --- | --- | --- | --- | --- | --- |
| CC[C@H](C)[C@H](NC(=O)[C@@H]1CCCN1C(=O)[C@H](C)NC(=O)[C@@H](N)CCCCNC(=O)CCC(F)(F)C(F)(F)C(F)(F)C(F)(F)C(F)(F)C(F)(F)C(F)(F)C(F)(F)F)C(=O)N[C@@H](CCSC)C(=O)N[C@@H](Cc1ccccc1)C(=O)N[C@@H](CO)C(=O)N[C@@H](CC(N)=O)C(=O)N[C@@H](CCCCN)C(=O)N[C@@H](CCSC)C(=O)N[C@@H](C)C(=O)N[C@@H](CCCNC(=N)N)C(=O)N[C@@H](CC(C)C)C(=O)NCC(=O)N[C@@H](CCCCN)C(=O)NCC(=O)N[C@@H](Cc1ccc(O)cc1)C(=O)N[C@@H](CCSC)C(=O)N[C@@H](Cc1ccccc1)C(=O)N[C@@H](CCC(=O)O)C(=O)N[C@@H](CO)C(=O)N[C@@H](CCCCN)C(=O)N[C@@H](CCCNC(=N)N)C(=O)N[C@@H](CCSC)C(=O)N[C@@H](CCCCN)C(=O)N[C@@H](CC(C)C)C(=O)N[C@@H](CCCNC(=N)N)C(=O)N[C@H](C(=O)N[C@@H](CCC(N)=O)C(=O)N[C@H](C(=O)N1CCC[C@H]1C(=O)N[C@@H](C)C(=O)N[C@@H](CCC(=O)O)C(=O)N[C@@H](CCSC)C(=O)N[C@@H](CC(C)C)C(=O)N[C@@H](C)C(N)=O)[C@@H](C)CC)[C@@H](C)O [FCP2] | Clear | Clear | Clear | Clear | Clear | Clear | Clear | 97.3% | 10 % v/v | Clear | fully soluble; also recorded: Clear/No Particulates | Cloudy−/No Particulates |  |  |
| CC[C@H](C)[C@H](NC(=O)[C@H](CC(C)C)NC(=O)[C@H](C)NC(=O)[C@H](CO)NC(=O)[C@H](CCCNC(=N)N)NC(=O)[C@H](C)NC(=O)[C@H](CC(C)C)NC(=O)[C@H](Cc1ccccc1)NC(=O)[C@@H](NC(=O)[C@H](CC(C)C)NC(=O)[C@H](CC(=O)O)NC(=O)[C@H](CCC(=O)O)NC(=O)[C@@H](NC(=O)[C@H](CCC(=O)O)NC(=O)[C@H](C)NC(=O)[C@H](CC(N)=O)NC(=O)CNC(=O)[C@@H]1CCCN1C(=O)[C@H](CC(N)=O)NC(=O)[C@H](CCCNC(=N)N)NC(=O)[C@H](CO)NC(=O)[C@H](CCC(=O)O)NC(=O)[C@H](CCCNC(=N)N)NC(=O)[C@@H](NC(=O)[C@H](CCC(N)=O)NC(=O)[C@H](CC(=O)O)NC(=O)[C@@H](N)CCCCNC(=O)CCC(F)(F)C(F)(F)C(F)(F)C(F)(F)C(F)(F)C(F)(F)C(F)(F)C(F)(F)F)C(C)C)[C@@H](C)CC)[C@@H](C)CC)C(=O)N[C@@H](CC(C)C)C(=O)N[C@@H](CCCNC(=N)N)C(=O)NCC(=O)N[C@@H](CO)C(=O)N[C@H](C(=O)N[C@@H](C)C(=O)N[C@@H](Cc1c[nH]cn1)C(=O)N[C@@H](CCCCN)C(=O)N[C@@H](CO)C(N)=O)C(C)C [FCP4] | Clear | Clear | Clear | Clear | Clear | Clear | Clear | 82.3% | 10 % v/v | Clear | fully soluble; also recorded: Clear/No Particulates | fully soluble; also recorded: Clear/No Particulates | 25.1% |  |
| CC[C@H](C)[C@H](NC(=O)[C@H](Cc1ccc(O)cc1)NC(=O)[C@@H](NC(=O)[C@H](CO)NC(=O)[C@H](CO)NC(=O)[C@@H](NC(=O)CNC(=O)CNC(=O)[C@H](C)NC(=O)[C@@H](NC(=O)[C@@H]1CCCN1C(=O)[C@H](CC(C)C)NC(=O)[C@H](Cc1ccccc1)NC(=O)[C@H](CCCNC(=N)N)NC(=O)[C@@H](NC(=O)[C@H](CCCCN)NC(=O)[C@H](CCCNC(=N)N)NC(=O)[C@@H](NC(=O)[C@H](CC(C)C)NC(=O)[C@H](CCC(=O)O)NC(=O)[C@H](CCCNC(=N)N)NC(=O)[C@H](CCC(=O)O)NC(=O)[C@H](CC(C)C)NC(=O)[C@H](CCSC)NC(=O)[C@H](Cc1ccc(O)cc1)NC(=O)[C@H](C)NC(=O)[C@@H](NC(=O)[C@@H](N)CCCCNC(=O)CCC(F)(F)C(F)(F)C(F)(F)C(F)(F)C(F)(F)C(F)(F)C(F)(F)C(F)(F)F)C(C)C)C(C)C)[C@@H](C)O)C(C)C)[C@@H](C)O)C(C)C)C(=O)N[C@@H](CCC(=O)O)C(=O)N[C@H](C(=O)N[C@@H](CC(C)C)C(=O)N[C@@H](Cc1c[nH]cn1)C(=O)N[C@@H](CC(C)C)C(=O)N[C@H](C(=O)N[C@@H](CCC(N)=O)C(=O)NCC(N)=O)[C@@H](C)O)C(C)C [FCP8] (H-K(Propanoyl(3-C8F17))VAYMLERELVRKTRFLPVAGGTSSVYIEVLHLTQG-NH2) | Particulates+ | Some |  | Some | Clear |  | Clear | 25.3% | 80 % v/v | Clear | insoluble; also recorded: Cloudy/Particulates | Cloudy/Particulates |  | physically unstable over time |
| CC[C@H](C)[C@H](NC(=O)[C@H](CO)NC(=O)[C@H](CC(C)C)NC(=O)[C@@H](NC(=O)[C@H](CC(N)=O)NC(=O)[C@H](CCCNC(=N)N)NC(=O)[C@H](Cc1ccccc1)NC(=O)[C@H](Cc1c[nH]c2ccccc12)NC(=O)[C@H](CCC(=O)O)NC(=O)[C@@H]1CCCN1C(=O)[C@H](CCC(N)=O)NC(=O)[C@H](CC(N)=O)NC(=O)[C@H](CCCNC(=N)N)NC(=O)[C@@H](NC(=O)[C@@H](NC(=O)[C@H](Cc1ccc(O)cc1)NC(=O)[C@@H](N)CCCCNC(=O)CCC(F)(F)C(F)(F)C(F)(F)C(F)(F)C(F)(F)C(F)(F)C(F)(F)C(F)(F)F)[C@@H](C)CC)[C@@H](C)O)C(C)C)C(=O)N[C@@H](C)C(=O)N1CCC[C@H]1C(=O)N[C@H](C(=O)N[C@@H](CCSC)C(=O)N[C@@H](Cc1ccccc1)C(=O)N[C@@H](CO)C(=O)N[C@@H](CC(N)=O)C(=O)N[C@@H](CCCCN)C(=O)N[C@@H](CCSC)C(=O)N[C@@H](C)C(=O)N[C@@H](CCCNC(=N)N)C(=O)N[C@@H](CC(C)C)C(=O)NCC(=O)N[C@@H](CCCCN)C(=O)NCC(=O)N[C@@H](Cc1ccc(O)cc1)C(=O)N[C@@H](CCSC)C(=O)N[C@@H](Cc1ccccc1)C(=O)N[C@@H](CCC(=O)O)C(N)=O)[C@@H](C)CC [FCP9] | Particulates− | Clear | Clear | Clear | Clear | Clear | Clear |  | 80 % v/v | Clear | partially soluble; also recorded: Clear/Particulates | Cloudy−/Particulates | 22.9% | physically unstable over time |
